Data: patent US11174301B2 (Takeda Pharmaceutical Company Limited, priority 2017, dated 2021)

Tests used:
Type in all cases: in vivo
ferrets [1] = experiment: Morphine-induced acute emetic model in ferrets; conditions: for Morphine-induced emesis: 1 nmol/kg s.c. 30 minutes before morphine (0.6 mg/kg, s.c.); for Ferrets in which the vomiting symptom was observed: 30 nmol/kg s.c., morphine 0.6 mg/kg s.c. 4 hours after administration, monitored 60 minutes, FIG. 6A; for Ferrets in which the vomiting symptom was observed / Vomiting symptom, morphine 120 hours after administration: n=4; for Vomiting symptom, morphine 120 hours after administration: 144 μg/kg (30 nmol/kg) s.c., morphine 0.6 mg/kg s.c. 120 hours after administration, FIG. 6B
Protocol: 4. Effect of Subcutaneously Administered GIP Agonist Analogue in Morphine-Induced Acute Emetic Model
Male ferrets (4-month-old) were repeatedly used until 8-month-old. To evaluate the antiemetic effect, the GIP agonist analogues other than natural human GIP were subcutaneously administered 30 minutes before morphine administration. Natural human GIP was subcutaneously administered 5 minutes before morphine administration.
At the time of each of 4 hours, or 120 hours after administration, 0.6 mg/kg of morphine was subcutaneously administered. Up to 60 minutes after morphine administration, the condition of the ferrets was monitored to record the frequencies and time points of abdominal contraction motions, vomiting behaviors, licking with the tongue, and fidgety behavior occurring.

C57BL/6J mice [2] = experiment: Oral glucose tolerance test (1); conditions: 0.03 nmol/kg, s.c. 30 minutes before glucose loading, control group = 100; for Rate of increase in blood glucose level (%) 30 min: 30 minutes after oral glucose; for Rate of increase in blood glucose level (%) 60 min: 60 minutes after oral glucose
Protocol: Oral Glucose Tolerance Test (1)
An oral glucose tolerance test (OGTT) was carried out using C57BL/6J mice with a […].

beagles = experiment: PYY-1119-induced vomiting in dogs; conditions: for Frequency of vomiting: 2-hour observation
male C57BL/6J mice = experiment: Conditioned taste aversion test in mice (PYY-1119-induced)
Protocol: Test Example 3: Conditioned Taste Aversion Test in Mice (FIG. 1A, FIG. 1B)
Additionally, the test compound or a solvent is subcutaneously administered simultaneously with PYY-1119.
On day 2, only a solvent is administered 10 minutes after presenting tap water.
On day 4, only tap water is presented.
On day 5, a test of selection from the bottles of saccharine water and tap water is carried out and preferential selection of saccharine water is evaluated.

ferrets [3] = experiment: Cisplatin-induced acute vomiting model in ferrets
Protocol: Test Example 4: Vomiting Suppression Test in Ferrets
The ferret test was carried out by Nissei Bilis Co., Ltd. (Shiga prefecture, Japan). Cisplatin (10 mg/kg i.p.) was administered to male ferrets (10-week-old, n=6) to induce acute vomiting. […] The frequency of emesis (feeling queasy, vomiting) was monitored over a period of 8 hours after cisplatin administration.
Up to 6 hours after cisplatin administration, the condition of the ferrets was monitored to record the frequencies and time points of abdominal contraction motions and vomiting behaviors occurring.

ferrets [4] = experiment: Cisplatin-induced delayed vomiting model in ferrets; conditions: monitored 72 hours
Protocol: Up to 72 hours after cisplatin administration, the condition of the ferrets was monitored to record the frequencies and time points of abdominal contraction motions and vomiting behaviors occurring.

C57BL/6J mice [5] = experiment: Oral glucose tolerance test (2); conditions: 3 nmol/kg, s.c. 72 hours before glucose loading, 30 minutes after oral glucose, control group = 100
Protocol: Oral Glucose Tolerance Test (2)
An oral glucose tolerance test (OGTT) was carried out using C57BL/6J mice with a […].

Substance | Rate of increase in blood glucose level (%) 30 min (C57BL/6J mice [2]) [%] | Rate of increase in blood glucose level (%) 60 min (C57BL/6J mice [2]) [%] | Morphine-induced emesis (ferrets [1]; FIG. 3, FIG. 4) | other results
Methyl-Tyr-Aib-Glu-Gly-Thr-Iva-Ile-Ser-Asp-Tyr-Ser-Ile-Aib-Leu-Asp-Arg-Aib-Ala-Gln-Aib-Asn-Phe-Val-Asn-Trp-Iva-Leu-Ala-Gln-Arg-Pro-Ser-Ser-Gly-Ala-Pro-Pro-Pro-Ser-Arg-NH2 [Compound 113] | 48 | 11 |  | Morphine-induced emesis (ferrets [1]; 0.1 nmol/kg, FIG. 5): suppressed the morphine-induced emesis
H-Tyr-Aib-Glu-Gly-Thr-Val-Val-Ser-Leu-Tyr-Ser-Ile-Aib-Leu-Asp-Arg-Gln-Ala-Gln-Aib-Glu-Phe-Val-Arg-Trp-Leu-Leu-Arg-Gly-Gly-Pro-Ser-Ser-Gly-Ala-Pro-Pro-Pro-Ser-Arg-NH2 [Compound 30] | 96 | 85 |  | 
H-Tyr-Aib-Glu-Gly-Thr-Val-Val-Ser-Leu-Tyr-Ser-Ile-Aib-Leu-Asp-Lys-Gln-Ala-Gln-Aib-Glu-Phe-Val-Lys-Trp-Aib-Leu-Lys-Gly-Gly-Pro-Ser-Ser-Gly-Ala-Pro-Pro-Pro-Ser-Lys-NH2 [Compound 42] | 70 | 43 |  | 
Methyl-Tyr-Aib-Glu-Gly-Thr-Iva-Ile-Ser-Asp-Tyr-Ser-Ile-Ala-Leu-Asp-Arg-Aib-Ala-Gln-Aib-Asn-Phe-Val-Asn-Trp-Leu-Leu-Ala-Gln-Arg-Pro-Ser-Ser-Gly-Ala-Pro-Pro-Pro-Ser-Arg-NH2 [Compound 104] | 31 | 8 | suppressed the morphine-induced emesis | 
H-Tyr-Aib-Glu-Gly-Thr-Val-Val-Ser-Leu-Tyr-Ser-Ile-Aib-Leu-Asp-Lys-Gln-Ala-Gln-Aib-Glu-Phe-Val-Lys-Trp-Leu-Leu-Lys-Gly-Gly-Pro-Ser-Ser-Gly-Ala-Pro-Pro-Pro-Ser-Lys-NH2 [Compound 6] | 56 | 31 | completely attenuated | Frequency of vomiting (beagles; 150 nmol/kg s.c. 10 minutes before PYY-1119 (10 μg/kg, s.c.), FIG. 7A): 0 to 3 times; PYY-1119-induced taste aversion (male C57BL/6J mice; 1, 3, 10, 30 or 100 nmol/kg s.c. simultaneously with PYY-1119 (10 nmol/kg, s.c.), FIG. 1A): suppressed the PYY-1119-induced taste aversion in a dose-dependent manner; Cisplatin-induced acute emesis (frequency of emesis) (ferrets [3]; 167 nmol/kg/hour subcutaneously injected from 1 hour before cisplatin (10 mg/kg i.p.), monitored 8 hours, FIG. 2A): completely eliminated the acute emesis
H-MeTyr-Aib-Glu-Gly-Thr-Iva-Ile-Ser-Asp-Tyr-Ser-Ile-Aib-Lys(Eda-GGGGG-)-Asp-Arg-Aib-Ala-Gln-Aib-Asn-Phe-Val-Asn-Trp-Iva-Leu-Ala-Gln-Arg-Pro-Ser-Ser-Gly-Ala-Pro-Pro-Pro-Ser-NH2 [Compound 341] |  |  |  | Ferrets in which the vomiting symptom was observed (ferrets [1]): none of the 4 ferrets; Vomiting symptom, morphine 120 hours after administration (ferrets [1]): none of the 4 ferrets; Cisplatin-induced delayed vomiting symptom (ferrets [4]; 144 μg/kg (30 nmol/kg) s.c. 34 hours after cisplatin 5 mg/kg i.p.): suppression of the vomiting symptom was noted; Rate of increase in blood glucose level (%) 72 hr (C57BL/6J mice [5]): 47%
H-MeTyr-Aib-Glu-Gly-Thr-Iva-Ile-Ser-Asp-Tyr-Ser-Ile-Aib-Leu-Asp-Arg-Lys(Oda-GGGGG-)-Ala-Gln-Aib-Asn-Phe-Val-Asn-Trp-Iva-Leu-Ala-Gln-Arg-Pro-Ser-Ser-Gly-Ala-Pro-Pro-Pro-Ser-NH2 [Compound 349] |  |  |  | Ferrets in which the vomiting symptom was observed (ferrets [1]): none of the 4 ferrets; Vomiting symptom, morphine 120 hours after administration (ferrets [1]): suppression of the vomiting symptom was noted; Rate of increase in blood glucose level (%) 72 hr (C57BL/6J mice [5]): 69%
Methyl-Tyr-Aib-Glu-Gly-Thr-Phe-Ile-Ser-Asp-Tyr-Ser-Ile-Ala-Leu-Asp-Arg-Ile-Ala-Gln-Gln-Asp-Phe-Val-Asn-Trp-Leu-Leu-Ala-Gln-Arg-Pro-Ser-Ser-Gly-Ala-Pro-Pro-Pro-Ser-Arg-NH2 [Compound 59] | 41 | 23 |  | 
Methyl-Tyr-Aib-Glu-Gly-Thr-Phe-Ile-Ser-Asp-Tyr-Ser-Ile-Ala-Leu-Asp-Arg-Aib-His-Gln-Aib-Asn-Phe-Val-Asn-Trp-Iva-Leu-Ala-Gln-Arg-Pro-Ser-Ser-Gly-Ala-Pro-Pro-Pro-Ser-Arg-NH2 [Compound 117] | 51 | 16 | suppressed the morphine-induced emesis | Frequency of vomiting (beagles; 10 nmol/kg s.c. 1 hour before PYY-1119 (10 μg/kg, s.c.), FIG. 7B): 0 to 3 times; Average suppression rate of the frequency of vomiting (beagles; 10 nmol/kg s.c. 1 hour before PYY-1119, versus medium group): 93%; Latency of the vomiting symptom (time from cisplatin administration to initial occurrence) (ferrets [4]; […] (0.3 nmol/kg) or 15 μg/kg (3 nmol/kg) s.c. 34 hours after cisplatin 5 mg/kg i.p., FIG. 2C): delayed; PYY-1119-induced taste aversion (male C57BL/6J mice; 0.003, 0.01, 0.03, 0.1, 0.3 or 1 nmol/kg s.c. simultaneously with PYY-1119 (10 nmol/kg, s.c.), FIG. 1B): suppressed the PYY-1119-induced taste aversion in a dose-dependent manner; Cisplatin-induced acute vomiting symptom (ferrets [3]; 0.15, 0.5, 1.5, 5 and 15 μg/kg (0.03, 0.1, 0.3, 1 and 3 nmol/kg) s.c. 1 hour before cisplatin 10 mg/kg i.p., monitored 6 hours, FIG. 2B): suppression of the vomiting symptom was noted in a dose-dependent manner
